Test results reported in US20240277716A1, “Suppressive T Cell Populations and Methods of Cancer Immunotherapy” (La Jolla Institute for Immunology, priority 2021, published 2024).

Tests used:
Format in all cases: in vivo, mouse
[1] = system: TREG cells from tumor, spleen and colonic tissue; assay: Single-cell RNA-seq and flow cytometry of TREG and CD8+ T cells from tumor, spleen and colon of B16F10-OVA tumor-bearing mice
Procedure: (§1) Murine lymphocytes were isolated from the spleen by mechanical dispersion through a 70-μm cell strainer (Miltenyi) to generate single-cell suspensions. RBC lysis (Biolegend) was performed to remove red blood cells. Tumor samples were harvested and lymphocytes were isolated by dispersing the tumor tissue in 2 ml of PBS, followed by incubation of samples at 37° C. for 15 min with DNase I (Sigma) and Liberase DL (Roche). The suspension was then diluted with MACS buffer and passed through a 70-μm cell strainer to generate a single cell suspension. Colons were collected and rinsed in 1 mM dithiothreitol (DTT) to remove feces. Each colon was cut into 2-3 mm pieces and incubated 3 times in pre-digestion solution (HBSS containing 5% FBS and 2 mM EDTA) at 37° C. for 20 min under high rotation to remove epithelial cells. Then tissues were minced with scissors and incubated with digestion solution (HBSS containing 5% FBS, 100 μg/ml DNase I (Sigma) and 1 mg/ml collagenase (Sigma)) at 37° C. for 20 min under high rotation to get single cell solutions of lamina propria cells. Cells were prepared in staining buffer (PBS with 2% FBS and 2 mM EDTA), FcR blocked (clone 2.4G2, BD Biosciences) and stained with antibodies as indicated below for 30 min at 4° C.; secondary stains were done for selected markers. Samples were then sorted or fixed and intracellularly stained using a FoxP3 transcription factor kit according to manufacturer's instructions (eBioscience). Cell viability was determined using fixable viability dye (ThermoFisher). The following antibodies from BD Biosciences, Biolegend, Miltenyi or eBbioscience were used: anti-human PD-1 (EH12.1, 1:30), CD4 (OKT4, 1:30), CD137 (4B4-1, 1:30), GITR (108-17, 1:30), ICOS (C398.4A, 1:50), CD8A (SKI, 1:30), CD25 (M-A251, 1:20), CD3 (SK7, 1:30), CD127 (eBioRDR5, 1:50), CD45 (HI30, 1:30), CD14 (HCD14, 1:50), CD20 (2H7, 1:50); anti-mouse CD3 (145-2C11, 1:100), CD4 (RM4-5, 1:100), CD8 (53-6.7, 1:100), PD-1 (29F1.A12, 1:100), ST2 (U29-93, 1:100) Ki67 (B56, 1:40), TOX (REA473, 1:40), CD19 (6D5, 1:100), CD45 (30-F11, 1:100), FOXP3 (FJK-16s, 1:100), GZMB (QA16A02, 1:40). All samples were acquired on a BD FACS Fortessa or sorted on a BD FACS Fusion (both BD Biosciences) and analyzed using FlowJo 10.4.1 for subsequent single-cell RNA-seq analysis.
Murine TREG cells. […] Reads were mapped with Cell Ranger followed by QC (github.com/vijaybioinfo/quality_control) and demultiplexed with bcl2fastq using default parameters. […] Differential expression was calculated with MAST^38 (v1.10.0) DESeq2 (v1.24.0) as previously described^37 and genes with an adjusted P-value <0.05 and a fold change of >log2 0.5 were defined as significant. […]

[2] = system: colonic CD8+ and CD4+ T cells; assay: scRNA sequencing of colonic CD8+ and CD4+ T cells under different PI3Kδi dosing regimens
Procedure: (§2) Tumor experiments. Mice were inoculated with 1-1.5×10^5 B16F10-OVA cells subcutaneously into the right flank. Mice were put on either a control diet or a diet containing a PI3Kδ inhibitor PI-3065 on day 1 or day 5 after tumor inoculation. Diets were prepared using powdered 2018 global rodent diet (Envigo) mixed with or without PI-3065 at 0.5 g/kg, which corresponds to a daily dose of 75 mg/kg as used previously. To pellet the food, 50% v/w water was added to the diet and dough thoroughly mixed, compressed, molded and dried before use. Tumor size was monitored every other day, and tumor harvested at indicated time points for analysis of tumor-infiltrating lymphocytes. Tumor size limit of 15 mm in diameter was not exceeded and volume was calculated as ½×D×d^2, where D is the major axis and d is the minor axis, as described previously^36.
Murine colonic CD4+ and CD8+ T cells. Single-cell RNA-seq was performed by using the 10× platform. Mapping, aggregation, and QC was carried out as described above with the following thresholds: genes per cells range of [300, 4500], UMI content per cell […], percent of mitochondrial counts of <=10%, and a doublet score of <=0.3. Cluster of contaminant cells expressing epithelial, monocyte, and fibroblast markers was eliminated after the first round of clustering. The final number of cells were n=6415 CD4^+ T cells and n=2715 CD8^+ T cells.

[3] = system: B16F10-OVA melanoma cells; assay: B16F10-OVA melanoma model, PI-3065 in diet: tumor volume and flow cytometry
Procedure: as §2, §1

[4] = system: DSS-induced acute colitis; assay: Dextran Sulfate Sodium (DSS)-induced acute colitis model
Procedure: Colitis experiments. […] Body weight of the mice was monitored. Colon tissues were collected for histological analysis at the endpoint. Whole colons were harvested from mice between cecum and rectum. Stools were flushed out of lumen with PBS. Then colons were fixed with zinc formalin for 5 minutes. Fixed colons were opened longitudinally, flattened, cut into 3 fragments and further fixed in zinc formalin for 48 hours in cassettes. After fixation, samples were transferred to 70% isopropanol for long term storage or H&E staining. Slides were scored blindly according to the following criteria: inflammation, area of infiltration (extent), crypt damage and edema. The colon was divided into 3 equal parts and the middle section was utilized for scoring. Four randomly selected areas were analyzed, and a histological score was determined.

Fc1ccc2[nH]ccc2c1-c1nc(N2CCOCC2)c2sc(CN3CCN(CC4CC4)CC3)cc2n1 [PI-3065]
differentially expressed genes in colonic TREG cells ([1]; PI3Kδi vs placebo treatment): 869 genes | colonic TREG subsets (clusters 2 and 8) ([1]; PI3Kδi-treated mice): depleted | CD8+ T cells in colonic tissue ([1]; colonic, but not splenic tissue): significant increase | ratio of CD8+ T cells to ST2 TREG cells ([1]; protein level): substantially increased | innate-like CD8+ T cells in colon ([2]; across dosing regimens): dosing-dependent decrease | TC17 and TH17 subsets and pertaining proliferating clusters, share of all cells ([2]; continuous dosing regimen): ~50% | TC17 and TH17 subsets and pertaining proliferating clusters ([2]; other treatment conditions (intermittent, infrequent, control)): nearly completely absent | tumor volume ([3]; C57BL/6 wild-type mice, PI-3065 diet vs control): significant decrease | TREG cells in tumor, spleen and colon ([3]; PI3Kδi-treated vs placebo-treated mice): significant decrease | tumor growth ([3]; continuous dosing (for the duration of the experiment)): decrease in tumor growth | CD8+ T cell infiltration in colonic tissue ([3]; continuous dosing only): increased | TREG cell levels in colonic tissue ([3]; continuous dosing only): decreased | intratumoral CD8+ T cells ([3]; high PD-1, increased proliferative and cytotoxic capacity): significant increase | tumor growth ([3]; infrequent dosing (2 days on, 5 days off), 2 cycles): decrease in tumor growth, albeit not significantly | tumor growth ([3]; intermittent dosing (4 days on, 3 days off), 2 cycles): significant decrease in tumor growth | TOX in CD8+ T cells ([3]; post-PI3Kδi): increased | body weight ([4]; 2.5% DSS from day 14-20, PI-3065 diet vs placebo): swift reduction in body weight | deaths prior to experimental endpoint ([4]; PI3Kδ inhibitor-treated group, n=10): one | effect on colitis ([4]; PI-3065 diet plus 2.5% DSS): exacerbates colitis | overall colitis score ([4]; inflammation, crypt damage, extent, vs placebo): higher overall colitis score
